Laboratory results published in patent publication USRE47475E1, “Selective agents for pain suppression” (WiSys Technology Foundation, Inc., priority 2002, dated 2019).
Like-named read-outs stand apart in the source and are kept apart here.

Experiments:
[1] = biological target: T1, GABAA/α2 (α2β3γ2 GABAA receptor) (Homo sapiens, UniProt P18507+P47869); assay: competitive binding assay with [3H]flunitrazepam
T1 construct: expressed in transfected cells
Experimental: (§1) Membranes were harvested with a Brandel cell harvester followed by three ice-cold washes onto polyethyleneimine-pretreated (0.3%) Whatman GF/C filters. Filters were dried overnight and then soaked in Ecoscint, a liquid scintillation cocktail (National Diagnostics; Atlanta, Ga.). Bound radioactivity was quantified by liquid scintillation counting. Membrane protein concentrations were determined using an assay kit from Bio-Rad (Hercules, Calif.) with bovine serum albumin as the standard.
as §1, with “The GABAA subunit selectivity of several compounds prepared as described above were determined using competitive binding assays. […] Membranes” for “Membranes”

[2] = biological target: T2, GABAA/α3 (α3β3γ2 GABAA receptor) (Homo sapiens, UniProt P18507+P34903); assay: competitive binding assay with [3H]flunitrazepam
T2 construct: expressed in transfected cells
Experimental: as §1
as §1, with “The GABAA subunit selectivity of several compounds prepared as described above were determined using competitive binding assays. […] Membranes” for “Membranes”

[3] = biological target: T3, GABAA/α1 (α1β3γ2 GABAA receptor) (Homo sapiens, UniProt P14867+P18507); assay: competitive binding assay with [3H]flunitrazepam
T3 construct: expressed in transfected cells
Experimental: as §1
as §1, with “The GABAA subunit selectivity of several compounds prepared as described above were determined using competitive binding assays. […] Membranes” for “Membranes”

[4] = biological target: T4, GABAA/α5 (α5β3γ2 GABAA receptor) (Homo sapiens, UniProt P18507+P31644); assay: competitive binding assay with [3H]flunitrazepam
T4 construct: expressed in transfected cells
Experimental: as §1
as §1, with “The GABAA subunit selectivity of several compounds prepared as described above were determined using competitive binding assays. […] Membranes” for “Membranes”

[5] = biological target: T5, GABAA/α6 (α6β3γ2 GABAA receptor) (Homo sapiens, UniProt P18507+Q16445); assay: competitive binding assay with [3H]flunitrazepam
T5 construct: expressed in transfected cells
Experimental: as §1
as §1, with “The GABAA subunit selectivity of several compounds prepared as described above were determined using competitive binding assays. […] Membranes” for “Membranes”

[6] = tested on: neuropathic pain after CCI of the sciatic nerve; assay: chronic constriction injury (CCI) model, mechanical sensitization (von Frey filaments); type: in vivo, mice
Experimental: In addition, the pro- or antinociceptive effects of the compounds of the present invention are analyzed in the chronic constriction injury (CCI) model. The GABAA receptor subunit selective test compounds of the present invention are analysed in the CCI model in 7-8-week-old C57BL/6 mice. See Bennett, G. J. & Xie, Y. K. A peripheral mononeuropathy in rat that produces disorders of pain sensation like those seen in man. […] Seven to eight week old mice are anesthetized with isofluran. Unilateral constriction injury of the left sciatic nerve just proximal to the trifurcation is performed with three loose ligatures. In sham-operated animals the sciatic nerve is exposed and the connective tissue is freed, but no ligatures are applied. […] Heat hyperalgesia, cold allodynia and mechanical sensitization are assessed 7-9 days after surgery. Mechanical sensitivity is assessed with electronic von Frey filaments (IITC).
Pain studies—Neuropathic pain: HZ166 and gabapentin were analyzed in the chronic constriction injury (CCI) model. Unilateral constriction injury of the left sciatic nerve just proximal to the trifurcation was performed as described previously (Bennett and Xie, 1988). Anesthesia was induced and maintained by 2% isoflurane, combined with oxygen (30%). The sciatic nerve was exposed at the mid-thigh level proximal to the sciatic trifurcation by blunt dissection through the biceps femoris muscle. […] of nerve were freed of adhering tissue and three chromic gut ligatures (4/0) (Ethicon) were loosely put around the nerve with about 1 mm spacing. The ligatures were tied until they elicited a brief twitch in the hindlimb. The surgical wound was closed in layers. Heat hyperalgesia and mechanical sensitization were assessed 7-16 days after surgery.
Pain Studies—Mechanical sensitization: Mechanical sensitivity was assessed with dynamic von Frey filaments (IITC, Woodland Hills, Calif.). 4-5 measurements were made for each time point and animal and averaged. Measurements of paw withdrawal thresholds of the injured paw and of the contralateral paw were made alternately.
Statistical Analysis: For all different doses and vehicle, baseline paw withdrawal thresholds/latencies on day 7 after nerve ligation or on day 2 after zymosan A injection were subtracted from all later withdrawal thresholds and the area under the curve (AUC) was calculated. Drug effects were expressed as percent maximum possible effect (MPE) calculated from comparisons of paw withdrawal latencies or thresholds obtained prior to surgery or inflammation and before and after drug treatment. […] Unless otherwise indicated, statistical comparisons were made with one-way analysis of variance (ANOVA) followed by Scheffe's post hoc test. P values<0.05 were considered significant.

[7] = tested on: Formalin Pain (mouse, i.p.); assay: T22 formalin test (chemically induced pain); type: in vivo
Experimental: This elicits a distinct bi-phasic behavioral profile in response to the formalin injection characterized by licking of the affected paw, and the number of licks is measured as a proxy for perceived pain. The first (acute) phase is thought to correspond to the direct stimulation of peripheral fibers while the second (inflammatory) phase is caused by the release of inflammatory mediators from the damaged tissue and nerve endings. Thus, this model is ideally suited for efficacy of an investigational AED against the acute and chronic hyper-responsive neuronal discharges following activation of peripheral nerve fibers.
The results of the formalin test are given both as raw data (“Response”) and in an aggregate, analyzed form (“Analysis”). In the Response section, each Trial involves sixteen animals, eight controls given an i.p. injection of vehicle and eight given the compound at a specified dose. Thus, for multiple doses of the compound, there will also be multiple control groups. The data recorded for each animal is the amount of time(s) spent licking the affected hind paw in a two minute period. These two minute periods occur at five minute intervals and continue for 45 minutes. […] From this plot, we can then determine the area under the curve (AUC) for each animal during both the acute and inflammatory stages. The AUC for each phase is shown in the analysis section of the data sheet for both control and drug-treated animals The AUC for each drug-treated animal is compared to the average result from the control group, yielding an average percent of control (reported with the SEM and p value).

[8] = tested on: Sciatic Ligation neuropathic pain; assay: T23 partial ligation of the sciatic nerve (mechanical allodynia); type: in vivo, rats
Experimental: Neuropathic pain. The pro- or antinociceptive effects of the compounds of the present invention are analyzed in two manners. […] Sterile technique will be used throughout the surgery. The upper thigh will be shaved and wiped off with ethanol and betadine. A small incision will then be made in the skin. The underlying muscle of the upper thigh will be separated and the sciatic nerve exposed. The nerve is separated from the surrounding connective tissue and slightly elevated by a pair of fine, curved forceps. Approximately ⅓ to ½ of the nerve is tied off by passing a needle (7.0) and nylon suture through the nerve. The muscle and skin incision are closed off separately with 5.0 suture and the animals kept warm until they have recovered from the anesthesia. This procedure is routinely done on the right side (ipsilateral) while a sham surgery is performed on the left hind leg (contralateral). The latter involves a similar procedure with the exception that the sciatic nerve on this side is only exposed. The rats will be closely monitored daily for the development of infection or untoward effects of the surgery in which case the animals will be immediately euthanized
After an appropriate time for recovery (7 days) the animals will be tested for the development of mechanical allodynia (abnormal response to a non-noxious stimulus). The animals are each put in a bottomless plexiglass box placed on a wire mesh (¼″) platform. After 30-60 minutes in which to acclimate, a baseline mechanical sensitivity is determined. This procedure is done by applying a series of calibrated Von Frey fibres perpendicularly to the plantar surface of each hind paw and holding it there for about 6 secs with enough force to slightly bend the fibre. After a positive response (withdrawal of the foot) is noted a weaker fibre is applied. This is repeated until a 50% threshold for withdrawal can be determined
The allodynic threshold is then redetermined after intraperitoneal administration of an investigational AED. Testing will be conducted at the time-to-peak effect of the AED as determined in the acute seizure model.

neuropathic pain = conditions: Knabl et al., 2008, cited from earlier work; for analgesic effect after repeated administration (tolerance): once per day for nine days
[9] = tested on: GABAA receptors of superficial dorsal horn neurons; assay: whole-cell patch-clamp of GABA-induced currents in spinal cord slices; type: cell-based, mice; conditions: diazepam 1 μM
Experimental: Electrophysiology of Spinal Cord Slices. […] GABAergic membrane currents are recorded from superficial dorsal horn neurons (laminae I and II) as described previously. […] GABA-induced currents are recorded from capsaicin sensitive DRG neurons 3-30 h after plating. Whole-cell patch-clamp recordings are performed from neurons identified under visual control using the infrared gradient contrast technique coupled to a video microscopy system. In both preparations, GABA (1 mM) is applied to the some of the recorded neuron via a glass pipette by short (10 ms) electronically controlled puffer applications at a frequency of 0.07 Hz.
Spinal cord GABAA receptors: Whole-cell patch-clamp electrophysiology recordings are performed in spinal cord slices of GABAA receptor mutant mice and of corresponding wt mice. […] GABA-induced membrane currents are evoked by external application of GABA (3 mM) to neurons located in the superficial layers (lamina I and II) of the spinal cord dorsal horn.

rhesus monkeys = assay: conflict model of anxiolytic activity which also measures sedation; type: in vivo; conditions: intravenously in propylene glycol/water
Experimental: The data in FIGS. 21A-21F reflect the ability of the compounds or drugs to exert an anxioyic effect in rhesus monkeys (J. Rowlett, J. M. Cook et al., unpublished results) when given intravenously in propylene glycol/water solution. This is the conflict model of anxiolytic activity which also measures sedation. […] In FIG. 21B, SH-053-2′F (JY-XHE-053) is anxiolytic at a dose of greater than 0.13 mg/kg, but exerts only some slight sedation at doses greater than 1.2 mg/kg (responses decrease). In FIG. 21C it is clear the S-enantiomer of SH-053-2′F—S—CH3 is anxiolytic with no sedation up to 10-18 mg/kg, which is the highest dose tested.

[10] = tested on: locomotor activity of mice; assay: spontaneous locomotor activity (activity cage); type: in vivo; conditions: i.p.
Experimental: Locomotor activity: Spontaneous locomotor activity was tested using a commercially available microprocessor equipped activity cage (actiframe, Gerb Elektronik). Mice were placed in the activity cage 15 min before testing. Locomotor activity was measured for 1 h after intraperitoneal administration of vehicle, gabapentin or HZ166 during the early light phase of the day-night cycle.

[11] = tested on: motor coordination of mice; assay: rotarod test (motor impairment); type: in vivo; conditions: HZ166 16 and 48 mg/kg, gabapentin 10 and 30 mg/kg, i.p., 60 min after treatment
Experimental: Motor impairment: A possible impairment of motor function was analyzed in the rotarod test. Mice were trained on the rotarod (diameter 3 cm, 2 rpm) for 2 days. Animals capable of remaining on the rotarod in the absence of treatment for at least 2 min were selected for drug testing. On the test day, the latency to fall off the rod was recorded before and 60 minutes after treatment with vehicle, HZ166 or gabapentin.

[12] = Binding Affinity at GABAA/α2, Table 3
[13] = Binding Affinity at GABAA/α3, Table 3
[14] = Binding Affinity at GABAA/α1, Table 3
[15] = Binding Affinity at GABAA/α5, Table 3
[16] = dose 35.5 (HZ-166), 18 (JY-XHE-053), 1 (XLI-JY-DMH) mg/kg, TPE 2 hr

CCOC(=O)c1ncn2c1CN=C(c1ccccc1)c1cc(I)ccc1-2 [HZ 120, Ethyl 8-iodo-6-phenyl-4H-benzo[f]imidazo[1,5-a][1,4]diazepine-3-carboxylate]
Ki [1, 12]: 35 nM
Ki [2, 13]: 78.5 nM
Ki [3, 14]: > 5000 nM
Ki [4, 15]: 20.6 nM
Ki [5]: 32.2 nM

C#Cc1ccc2c(c1)C(c1ccccc1)=NCc1c(-c3nc(CC)no3)ncn1-2 [PS-I-26]
Ki [1, 12]: 366 nM
Ki [2, 13]: 260 nM
Ki [3, 14]: 933 nM
Ki [4, 15]: 394 nM
Ki [5]: > 5000 nM

C#Cc1ccc2c(c1)C(c1ccccc1Cl)=NCc1nnc(C)n1-2 [XLI-JY-DMH, 8-Acetyleno-5-(2′-chlorophenyl)-1-methyl-4H-s-triazolo-[4,3-a]-1,4-benzodiazepine]
analgesic effects in the chronic constriction injury model of neuropathic pain ([6]; mouse, in vivo): analgesic effects
Ki ([1]; Table 3, read-out: Binding Affinity at GABAA/α2): 0.58 nM
Ki ([2]; Table 3, read-out: Binding Affinity at GABAA/α3): 1.9 nM
Ki ([3]; Table 3, read-out: Binding Affinity at GABAA/α1): 3.3 nM
Ki ([4]; Table 3, read-out: Binding Affinity at GABAA/α5): 4.4 nM
Ki ([5]; Table 3, read-out: Binding Affinity at GABAA/α6): > 5000 nM
protection at the acute phase of chemically induced pain ([7]; formalin test, acute phase): insignificant
Change (% of Control) ± SEM, T22 Formalin Pain, Acute ([7]; mouse, i.p., acute phase, dose 16 (HZ-166), 10 (JY-XHE-053), 1 (XLI-JY-DMH) mg/kg): 87.6 % of Control
Change (% of Control) ± SEM, T22 Formalin Pain, inflammatory ([7]; mouse, i.p., inflammatory phase, dose 16 (HZ-166), 10 (JY-XHE-053), 1 (XLI-JY-DMH) mg/kg): 111.9 % of Control
protection against neuropathic pain caused by sciatic ligation ([8]; T23 sciatic ligation): insignificant
Change (% of Control) ± SEM, T23 Sciatic Ligation [8, 16]: 136 % of Control
Significance, T23 Sciatic Ligation [8, 16]: no

CN1CC[C@]23c4c5ccc(O)c4O[C@H]2[C@@H](O)C=C[C@H]3[C@H]1C5 [morphine]
analgesic effect after repeated administration (tolerance) (neuropathic pain): complete tolerance

CN1C(=O)CN=C(c2ccccc2)c2cc(Cl)ccc21 [Diazepam, diazepam]
potentiation of GABA induced currents ([9]; wild-type mice, mean±SEM, n=11): 150.1±7.54%
potentiation of GABA induced currents ([9]; α1 mutant mice): 165±22.3%
potentiation of GABA induced currents ([9]; α2 mutant mice): 106.9±3.6%
potentiation of GABA induced currents ([9]; α3 mutant mice): 102.5±6.6%
potentiation of GABA induced currents ([9]; α5 mutant mice): 126±13.0%
anxiolytic effect (conflict model) (rhesus monkeys): anxiolytic
level of pain response ([7]; mouse formalin test and model of sciatic nerve ligation): strongly reduced

Cn1ncnc1COc1nn2c(-c3cc(F)ccc3F)nnc2cc1C(C)(C)C [L-838,417]
antihyperalgesic activity in a rat neuropathic pain model (neuropathic pain): good antihyperalgesic activity
analgesic effect after repeated administration (tolerance) (neuropathic pain): did not diminish

NCC1(CC(=O)O)CCCCC1 [gabapentin, reference compound]
dose at which sedative effects were observed [10]: 30 mg/kg
doses with significant reduction in locomotor activity [10]: ≥ 30 mg/kg
reversal of mechanical hypersensitivity ([6]; i.p., CCI model): dose-dependent reversal
maximum antihyperalgesic effect (efficacy) compared with HZ166 ([6]; reached only with sedative doses): higher
interfered with rotarod performance [11]: Neither
